The source of these data is patent publication US20070190129A1, “Sustained release dosage forms of ziprasidone” (Pfizer Inc., priority 2003, published 2007).

≈ marks a conversion by molar mass, not a printed value. Where a name gives a salt, the structure may show the parent alone. Read-outs that look alike come from different tables or passages of the source.

Data set [1] can be described thus: In vitro membrane permeation test. The class given is physicochemical. Particulars: for Concentration (permeate solution): feed MFD solution, 100 μgA/mL if all dissolved, 37° C. The method, then: The ziprasidone coated crystals were evaluated in vitro using a membrane permeation test. An Accurel® PP 1E microporous polypropylene membrane was obtained from Membrana GmbH (Wuppertal, Germany). The membrane was washed in isopropyl alcohol and rinsed in methanol in a sonicating bath for 1 minute at ambient temperature, and then allowed to air dry at ambient temperature. The feed side of the membrane was then plasma-treated to render it hydrophilic by placing a sample of the membrane in a plasma chamber. The atmosphere of the plasma chamber was saturated with water vapor at a pressure of 550 mtorr. A plasma was then generated using radio frequency (RF) power inductively coupled into the chamber via annular electrodes at a power setting of 50 watts for 45 seconds. The contact angle of a drop of water placed on the surface of the plasma-treated membrane was about 40°. The contact angle of a drop of water placed on the permeate side of the same membrane was greater than about 110°.
A permeate reservoir was formed by gluing a sample of the plasma-treated membrane to a glass tube having an inside diameter of about 1 inch (2.54 cm) using an epoxy-based glue (LOCTITE® E-30CL HYSOL®) from Henkel Loctite Corp, Rocky Hill, Conn.). The feed-side of the membrane was oriented so that it was on the outside of the permeate reservoir, while the permeate-side of the membrane was oriented so that it was on the inside of the reservoir. The effective membrane area of the membrane on the permeate reservoir was about 4.9 cm^2. The permeate reservoir was placed into a glass feed reservoir. The feed reservoir was equipped with a magnetic stir bar and the reservoir was placed on a stir plate and the stir rate was set to 100 rpm during the test. The apparatus was placed into a chamber maintained at 37° C. for the duration of the test. Further details of the test apparatus and protocols are presented in co-pending U.S. patent application Ser. No. 60/557,897, entitled “Method and Device for Evaluation of Pharmaceutical Compositions,” filed Mar. 30, 2004 (attorney Docket No. PC25968), incorporated herein by reference.
To form the feed solution, a 1.39 mg sample of the coated crystals was weighed into the feed reservoir. To this was added 5 mL of MFD solution previously described, consisting of PBS solution containing 7.3 mM sodium taurocholic acid and 1.4 mM of 1-palmitoyl-2-oleyl-sn-glycero-3-phospocholine (0.5% NaTC/POPC). The concentration of ziprasidone in the feed solution, would have been 100 μgA/mL, if all of the ziprasidone had dissolved. The feed solution was mixed using a vortex mixer for 1 minute. Before the membrane contacted the feed solution, 5 mL of 60 wt% decenol in decane was placed into the permeate reservoir. Time zero in the test was the membrane was placed in contact with the feed solution. A […] aliquot of the permeate solution was collected at the times indicated. Samples were then diluted in […] IPA and analyzed using HPLC.
As a control, the membrane test was repeated using a 0.5-mg sample of crystalline ziprasidone alone, so that the concentration of drug would have been 100 μg/mL, if all of the drug had dissolved.
The maximum flux of drug across the membrane (in units of mgA/cm^2-min) was determined by performing a least-squares fit to the data in Table 3 from 0 to 60 minutes to obtain the slope, multiplying the slope by the permeate volume (5 mL), and dividing by the membrane area (4.9 cm^2).

The next data set can be described thus: physchem. An excerpt:
To achieve efficacious blood levels over long periods of time, the sustained release dosage form should release ziprasidone to the gastrointestinal tract in a manner that allows ziprasidone to be absorbed for a sustained length of time. However, formulating ziprasidone into a sustained release dosage form presents a number of problems. […] Such low solubility at intestinal pH inhibits absorption of ziprasidone in the intestines.
In one embodiment, the solubility-improved form of ziprasidone is a high solubility salt form. It is known that some low-solubility drugs may be formulated in highly soluble salt forms that provide temporary improvements in the concentration of the drug in a use environment relative to another salt form of the drug.

Data set [2] is described as follows: Microcentrifuge dissolution test in MFD solution. The class given is physicochemical. More on the design: AUC: concentration or dose not given beside the values. Particulars: for AUC / Dissolved Ziprasidone Concentration: MFD solution pH 6.5, 37° C.; for Dissolved Ziprasidone Concentration: 200 μgA/mL if all dissolved. The procedure:
The tests were run in duplicate. The tubes were placed in a 37° C. temperature-controlled chamber, and 1.8 mL MFD solution at pH 6.5 and 290 mOsm/kg was added to each respective tube. The samples were quickly mixed using a vortex mixer for about 60 seconds. The samples were centrifuged at 13,000 G at 37° C. for 1 minute prior to collecting a sample. The resulting supernatant solution was then sampled and diluted 1:5 (by volume) with methanol. Samples were analyzed by high-performance liquid chromatography (HPLC) at a UV absorbance of 315 nm using a Zorbax RxC8 Reliance column and a mobile phase consisting of 55% (50 mM potassium dihydrogen phosphate, pH 6.5)/45% acetonitrile. Drug concentration was calculated by comparing UV absorbance of samples to the absorbance of drug standards. The contents of each tube were mixed on the vortex mixer and allowed to stand undisturbed at 37° C. until the next sample was taken. Samples were collected at 4, 10, 20, 40, 90, and 1200 minutes following administration to the MFD solution.
A similar test was performed with the crystalline ziprasidone free base as a control, and a sufficient amount of material was added so that the concentration of compound would have been 200 μgA/mL, if all of the ziprasidone had dissolved.
The concentration of ziprasidone obtained in these tests were used to determine the maximum dissolved concentration of ziprasidone (“MDC90”) and the area under the concentration-versus time (“AUC90”) during the initial ninety minutes.

For another data set, the target named is D2 receptor (Homo sapiens, UniProt P14416). Particulars: cited from earlier work.
Chain of D2 receptor (P14416 whole entry): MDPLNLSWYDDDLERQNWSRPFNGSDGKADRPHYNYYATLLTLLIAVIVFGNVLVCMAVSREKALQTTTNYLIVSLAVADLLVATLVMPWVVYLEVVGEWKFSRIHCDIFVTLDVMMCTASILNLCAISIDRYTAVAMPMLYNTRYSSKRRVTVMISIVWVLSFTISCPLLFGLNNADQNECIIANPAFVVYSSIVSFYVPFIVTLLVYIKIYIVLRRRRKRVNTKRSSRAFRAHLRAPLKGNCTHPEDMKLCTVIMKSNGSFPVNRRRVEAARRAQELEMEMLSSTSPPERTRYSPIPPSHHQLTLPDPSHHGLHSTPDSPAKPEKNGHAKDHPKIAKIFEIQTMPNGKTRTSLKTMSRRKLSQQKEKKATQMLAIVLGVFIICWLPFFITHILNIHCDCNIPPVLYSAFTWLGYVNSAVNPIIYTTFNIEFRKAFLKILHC
For data set [3] the following is noted: with food versus without; cited from earlier work.
The mark [4] stands for this setting: at the pH of the saturated solution.
Where [5] appears, read: initial ninety minutes, MFD solution pH 6.5.

Take `Cl.O=C1Cc2cc(CCN3CCN(c4nsc5ccccc45)CC3)c(Cl)cc2N1` [Crystalline Ziprasidone HCl]: the “Concentration (permeate solution)” value in data set [1] (0 min) turned out to be 0.0 μgA/mL; in data set [1] (20 min), 5.2 μgA/mL; in data set [1] (40 min), 8.1 μgA/mL; in data set [1] (60 min) it was 10.0 μgA/mL; in data set [1] (90 min), 11.4 μgA/mL; in data set [1] (120 min), 12.9 μgA/mL. The “Concentration (permeate solution)” value in data set [1] (180 min) is reported as 18.1 μgA/mL; in data set [1] (245 min) it was 20.9 μgA/mL; in data set [1] (360 min), 22.6 μgA/mL. Besides, the Maximum flux of Ziprasidone in data set [1] (least-squares fit 0 to 60 minutes, permeate volume 5 mL, membrane area 4.9 cm^2) was determined as 0.16 µgA/cm²·min.

Consider `O=C(O)c1ccccc1O` [Salicylate], for which, in the data set “physchem”, the Aqueous Solubility (as a rule, the concentration that dissolves in the medium under given conditions) was determined as 58 µg/mL and the “pH of Saturated Solution” value is on record as 5.5.

In the case of `O=C1Cc2cc(CCN3CCN(c4nsc5ccccc45)CC3)c(Cl)cc2N1` [Ziprasidone hydrochloride monohydrate, ziprasidone hydrochloride monohydrate], the “AUC90 (area under the concentration-versus time)” value in data set [2] (initial ninety minutes, MFD solution pH 6.5, hydrochloride monohydrate) was 1,700 min*μgA/mL. In addition, the “MDC90 (maximum dissolved concentration of ziprasidone)” value in data set [2] (pH 6.5) turned out to be 22 μgA/mL.

As to `O=C1Cc2cc(CCN3CCN(c4nsc5ccccc45)CC3)c(Cl)cc2N1` [ziprasidone, 5-[2-[4-(1,2-benzisothiazol-3-yl)-1-piperazinyl]ethyl]-6-chloro-1,2-dihydro-2H-indol-2-one], the D2 occupancy result on D2 receptor (blood ziprasidone concentration 16 ng/ml) was “approximately 50%”; at D2 receptor (blood ziprasidone concentration 30 ng/ml) it was “approximately 65%”; at D2 receptor (blood ziprasidone concentration 50 ng/ml), “approximately 75%”. Moreover, the “absorption in the presence of food” value in data set [3] is listed as “increased up to two-fold”. For the same compound, the “AUC90 (area under the concentration-versus time)” value in data set [2] (initial ninety minutes, MFD solution pH 6.5, listed as Ziprasidone free base) is listed as 120 min*μgA/mL. Further, the “MDC90 (maximum dissolved concentration of ziprasidone)” value in data set [2] (pH 6.5) amounted to 2 μgA/mL. In addition, in “physchem”, the “pH of Saturated Solution” value turned out to be 9.8. Further, the solubility – broadly, the dissolved amount per volume that the medium holds – in the data set “physchem” (pH 6.5, aqueous buffer) was roughly 0.2 µg/mL (≈ 0.484 µM); in the data set “physchem” (pH 9.8, water) it was 0.2 µg/mL (≈ 0.484 µM).

As to Fumarate, in the data set “physchem”, the “Aqueous Solubility” value was 2000 µg/mL and the “pH of Saturated Solution” value is recorded as 2.5.

For the compound Maleate, in the data set “physchem”, the “Aqueous Solubility” value turned out to be 118 µg/mL and the “pH of Saturated Solution” value was found to be 4.3.

For Phosphate, the “pH of Saturated Solution” value in “physchem” is reported as 2.3. Moreover, the “Aqueous Solubility” value in the data set “physchem” (setting [4]) amounted to 37 µg/mL.

On to Tosylate, for which, in “physchem”, the “pH of Saturated Solution” value was determined as 6.0. Besides, the “Aqueous Solubility” value in “physchem” (setting [4]) came out at 64 µg/mL.

For the compound ziprasidone mesylate trihydrate, the AUC in data set [2] (0 min) is reported as 0 min-μgA/mL; in data set [2] (4 min), 110 min-μgA/mL; in data set [2] (10 min) it was 380 min-μgA/mL; in data set [2] (20 min), 640 min-μgA/mL; in data set [2] (40 min) it was 970 min-μgA/mL; in data set [2] (90 min), 1,600 min-μgA/mL. In addition, in data set [2] (1200 min), the AUC was 11,200 min-μgA/mL. Moreover, the “Dissolved Ziprasidone Concentration” value is recorded as 0 μgA/mL in data set [2] (0 min); 55 μgA/mL in data set [2] (4 min); 33 μgA/mL in data set [2] (10 min); 20 μgA/mL in data set [2] (20 min); 13 μgA/mL in data set [2] (40 min); 11 μgA/mL in data set [2] (90 min). In addition, in data set [2] (1200 min), the “Dissolved Ziprasidone Concentration” value was found to be 6 μgA/mL. In data set [2] (MFD solution pH 6.5), the “AUC90 relative to that provided by the free base” value stood at 13 fold. In data set [2] (MFD solution pH 6.5), the “MDC90 relative to that provided by the free base” value was 27 fold. In addition, the “AUC90 (area under the concentration-versus time)” value in data set [2] (setting [5]) is reported as 1,600 min*μgA/mL. For the same compound, the “MDC90 (maximum dissolved concentration of ziprasidone)” value in data set [2] (setting [5]) was found to be 55 μgA/mL.
